In brackets after ≈: the same amount, converted by molar mass. Like-named read-outs stand apart in the source and are kept apart here. Where a SMILES comes first, the peptide text is derived from it. Where no end group is shown, it is not given here.
Experiments:
physchem = assay type: physicochemical
Experimental: The tests were carried out in three of the most common solvents used in biological applications such as: ultrapure water; DPBS (Dulbecco's Phosphate Buffered Saline), i.e., a saline buffer containing potassium chloride (KCl), monobasic potassium phosphate (KH2PO4), sodium chloride (NaCl) and dibasic sodium phosphate (Na2HPO4-7H2O) and finally in an organic solvent such as dimethylsulfoxide (DMSO).

[1] = assay type: physicochemical
Experimental: The structural and conformational characterization of the RiLK1 peptide was assessed by investigating its secondary structure by ^1H NMR spectroscopy in H2O and in a micellar solution of SDS at a concentration of 150 mM to mimic the condition of the bacterial cell membrane.
In fact, the representative structures of the RiLK1 peptide in water show a random orientation of both polar and hydrophobic amino acid side chains.
The helical structure appears well defined and stabilized by hydrophobic interactions of amino acid residues located on the opposite face. It is important to note that, in this arrangement, all the charged side chains are iso-oriented and well prone to interact with the negatively charged surface of the SDS micelles. Furthermore, the two tryptophan residues within the RiLK1 sequence are located at an optimal distance for their mutual stacking, thus contributing to the stabilization of the helix. It should be pointed out that the ^1H NMR spectra of the peptide IDR-1018-K6 (described in patent application WO2019012158) could not be acquired in the presence of micellar solutions of SDS since it is not soluble at the concentrations required to carry out these assays. […] Therefore, it is possible to assert that the NMR analysis in the presence of SDS has shown that the RiLK1 peptide of the present invention is capable of adopting the helix conformation, whereas the IDR-1018-K6 peptide (object of patent WO2019012158) has poor solubility and a heterogeneous system not suitable for NMR structural characterization (Table 2).

S. aureus = assay type: cell-based, Staphylococcus aureus
Experimental: (§1) The evaluation of the Minimum Bactericidal Concentration (MBC), i.e., the lowest concentration of antimicrobial agent capable of 99.9% inhibition of bacterial growth on plates, was carried out as described in Bílikova et al, (2015, Peptides 68:190-196). […] It should be noted that the peptide object of the present invention is more powerful and efficient than the peptide IDR-1018-K6 (described in patent application WO2019012158) against the pathogenic bacteria L. monocytogenes and S. typhimurium, with bactericidal concentration values 4-fold and 7-fold lower, respectively, compared to those shown by IDR-1018-K6.

L. monocytogenes (LM2) = assay type: cell-based, Listeria monocytogenes; conditions: LM2
Experimental: as §1

S. typhimurium = assay type: cell-based, Salmonella typhimurium
Experimental: as §1

E. coli = assay type: cell-based, Escherichia coli
Experimental: as §1

[2] = tested on: Aspergillus brasiliensis (ATCC 9341); assay: antifungal activity, plate count, MFC; assay type: cell-based; conditions: A. brasiliensis
Experimental: The antifungal activity of the RiLK1 peptide was determined against Aspergillus brasiliensis. For this purpose, a stock culture was prepared in which 10^5 CFUs of A. brasiliensis were inoculated in 10 ml of buffered peptone water. A reference strain (ATCC 9341) was used for this fungal species. The culture was incubated for 6 h at 37° C. with the RiLK1 peptide at 25 μM concentrations. At the same time, control samples were incubated without adding the peptide. 100 μl of the samples thus prepared were seeded on DG18 plates (Dichloran 18% Glycerol Agar-ISO 21527-2) and incubated at 25° C. for 7 days. All experimental conditions investigated used the plate count method to estimate the fungicidal activity of the peptide. Specifically, the numbers of colonies grown on agar plates seeded with the fungal suspensions in the absence or presence of the individual peptide dilutions were counted and compared. The standard deviations of the triplicate incubations of each plate were determined using statistical software. The evaluation of the Minimum Fungicidal Concentration (MFC), i.e., the lowest concentration of antifungal agent capable of 99.9% inhibition of fungal growth on plates, was carried out as described in Bílikova et al, (2015, Peptides 68:190-196).

[3] = tested on: Candida albicans (ATCC 14053); assay: activity against yeast, plate count, MFC; assay type: cell-based; conditions: C. albicans
Experimental: The inhibitory activity of the RiLK1 peptide was determined against the yeast Candida albicans. A stock culture was prepared in which 10^5 CFUs of C. albicans were inoculated in 10 ml of buffered peptone water. A reference strain (ATCC 14053) was used for this species. The culture was incubated for 6 h at 37° C. with the RiLK1 peptide at 25 μM concentrations. At the same time, control samples were incubated without adding the peptide. 100 μl of the samples thus prepared were seeded on DG18 plates (Dichloran 18% Glycerol Agar-ISO 21527-2) and incubated at 25° C. for 7 days. All experimental conditions investigated used the plate count method to estimate the antimycotic activity of the peptide. Specifically, the numbers of colonies grown on agar plates seeded with the cultures in the absence or presence of the individual peptide dilutions were counted and compared. The standard deviations of the triplicate incubations of each plate were determined using statistical software. The evaluation of the Minimum Fungicidal Concentration (MFC), i.e., the lowest concentration of antifungal agent capable of 99.9% inhibition of fungal growth on plates, was carried out as described in Bílikova et al, (2015, Peptides 68:190-196).

Row | Compound | Solubility limit (physchem) [µg/mL] | solubility (physchem; Solubility limit) [µg/mL] | Outcome (physchem; pH 7.1) | Outcome (physchem) | solubility (physchem; pH 7.1, Solubility limit) [µg/mL] | also measured
1 | CC[C@@H](C)[C@@H](NC(=O)[C@@H](CCCNC(=N)N)NC(=O)[C@H](NC(=O)[C@@H](CCCCN)NC(=O)[C@H](NC(=O)[C@H](NC(=O)[C@@H](CC(C)C)NC(=O)[C@@H](CCCNC(=N)N)NC(=O)[C@H](N)C(C)C)[C@H](C)CC)C(C)C)C(C)C)C(=O)N[C@H](Cc1c[nH]c2ccccc12)C(=O)N[C@H](CCCNC(=N)N)C(=O)N[C@H](CCCNC(=N)N)C(N)=O [IDR-1018-K6 (D)] (HELM PEPTIDE1{[dV].[dR].[dL].[dI].[dV].[dK].[dV].[dR].[dI].[dW].[dR].[dR].[am]}$$$$V2.0; N-terminus and C-terminus assumed) | 0 | 10000 (≈ 6.28 mM) | NOT dissolved | – | – | Solubility limit (physchem; pH 7.1): 0 µg/mL
2 | VRLIVKVRIWRR-NH2 (C-terminus assumed) [IDR-1018-K6] | – | ≤ 5000 | – | – | – | solubility (physchem): totally insoluble; solubility [1]: 1000 µM; peptide concentration in NMR sample (solubility) ([1]; pH 4.4): insoluble; MBC (S. aureus): 15 µM; MBC (L. monocytogenes (LM2)): 8 µM; MBC (S. typhimurium): 25 µM; MBC (E. coli): 2 µM; Drop Log CFU/ml ([2]; 25 μM, 6 h): 0 Log CFU/ml; post-treatment decrease in the fungal load ([2]; 25 μM, 6 h): 0 Log; antifungal activity in words ([2]; same experimental conditions): not active; Drop Log CFU/ml ([3]; 25 μM, 6 h): 1.0 Log CFU/ml; post-treatment decrease in the fungal load ([3]; 25 μM, 6 h): 1.0 Log; antimycotic activity in words ([3]; same experimental conditions): low efficiency
3 | VRLIVKVRIWRR-NH2 (C-terminus assumed) [IDR-1018-K6(L)] | 10000 | 5000 | Dissolved | Dissolved | 5000 | –
4 | RLKWVRIWRR-NH2 [RiLK1(L), RLKWVRIWRR] | 10000 | 10000 | Dissolved | Dissolved | 10000 | –
5 | CC[C@@H](C)[C@@H](NC(=O)[C@@H](CCCNC(=N)N)NC(=O)[C@H](NC(=O)[C@@H](Cc1c[nH]c2ccccc12)NC(=O)[C@@H](CCCCN)NC(=O)[C@@H](CC(C)C)NC(=O)[C@H](N)CCCNC(=N)N)C(C)C)C(=O)N[C@H](Cc1c[nH]c2ccccc12)C(=O)N[C@H](CCCNC(=N)N)C(=O)N[C@H](CCCNC(=N)N)C(N)=O [RiLK1(D), RLKWVRIWRR] (HELM PEPTIDE1{[dR].[dL].[dK].[dW].[dV].[dR].[dI].[dW].[dR].[dR].[am]}$$$$V2.0; N-terminus assumed) | 10000 (≈ 6.81 mM) | 10000 (≈ 6.81 mM) | Dissolved | Dissolved | 10000 (≈ 6.81 mM) | –

— patent US20260234187A1, “ANTIMICROBIAL PEPTIDES” (MATERIAS S.R.L., priority 2020, published 2026)
